Results reported in patent US7655651B2, “Amide derivatives of 3-phenyl-dihydropyrimido[4,5-d]pyrimidinones, their manufacture and use as pharmaceutical agents” (Hoffmann-La Roche Inc., priority 2004, dated 2010).

Target: T1, Src (p60^c-src, partially purified) (Homo sapiens, UniProt P12931)
T1 construct: purchased UBI, Upstate Biotech, Inc
Assay: SRC-Inhibitor-Assay (time-resolved fluorescence kinase assay)
Assay type: biochemical
Conditions: ATP 5 μM; peptide 10 μM; enzyme 2.5 U/ml; enzyme pre-incubated with inhibitor 15 min at 15° C.
Procedure: The activity of the compounds according to this invention as inhibitors for the src-family tyrosine kinases was shown by using the following assay.
SRC-Inhibitor-Assay Parameters:
• whereby both peptides were synthesized by an optimized solid phase peptide synthesis protocol (Merrifield, Fed. Proc. Fed. Amer. Soc. Exp. Biol. 21 (1962) 412) on a Zinsser SMP350 peptide synthesizer. Shortly, the peptide was assembled on […] (22.8 μmol scale) of a Rink-Linker modified polystyrene solid phase by repeatedly conjugating an twenty fold excess of amino acids each protected by temporary piperidine labile Fmoc- and permanent acid labile tert-Bu-, BOC— and O-tert-Bu-groups depending on the side chain function. The substrate sequence AEEEIYGEFEAKKKK was N-terminal additionally mounted with the spacer amino acids Aminocaprylic acid and Glycin. After cleavage of the N-terminal temporary protecting group the still attached and protected peptide was labeled with a 1.5 fold amount of LightCycler-Red 640-N-hydroxy succinimide ester (purchased from Roche Diagnostics GmbH) and triethylamine. After 3 hrs. the resin washed with Dimethylformamide and Isopropanol until the eluates of the blue resin got colourless. […] The substrate was finally isolated by a preparative reverse phase HPLC purification. The purification yielded 12.2 mg RP-HPLC single peak pure blue material (lyophilisate). The identity was proven by MALDI mass spectroscopy [2720.0]. • Enzymes: Upstate Src (p60^c-src, partially purified) were purchased from UBI, Upstate Biotech, Inc.
Time-resolved Fluorescence Assay: Reader: Perkin Elmer, Wallac Viktor 1420-040 multilabel counter; Liquid handling system: Beckman Coulter, Biomek 2000.
ATP, Tween™ 20, 4-(2-hydroxyethyl)-1-piperazineethanesulfonic acid (HEPES) were purchased from Roche Molecular Biochemicals, MgCl2 and MnCl2 were purchased from Merck Eurolab, Tris(2-carboxyethyl)phosphine hydrochloride (TCEP) was purchased from Pierce, 384 Well low volume fluorescence plates was purchased from Falcon.
At first the enzyme is pre-incubated for 15 min. at 15° C. in aqueous solution with corresponding amounts of inhibitors according to this invention. Then the phosphorylation reaction is started by adding a reaction mixture, containing ATP, Peptide and PT66, and subsequent shaking. The proceeding of this reaction is immediately monitored using time resolved fluorescence spectroscopy in a suitable well plate reader.
The IC50-values can be obtained from the reaction rates by using a non-linear curve fit (XLfit software (ID Business Solution Ltd., Guilford, Surrey, UK))

T1 sequence (P12931 whole entry): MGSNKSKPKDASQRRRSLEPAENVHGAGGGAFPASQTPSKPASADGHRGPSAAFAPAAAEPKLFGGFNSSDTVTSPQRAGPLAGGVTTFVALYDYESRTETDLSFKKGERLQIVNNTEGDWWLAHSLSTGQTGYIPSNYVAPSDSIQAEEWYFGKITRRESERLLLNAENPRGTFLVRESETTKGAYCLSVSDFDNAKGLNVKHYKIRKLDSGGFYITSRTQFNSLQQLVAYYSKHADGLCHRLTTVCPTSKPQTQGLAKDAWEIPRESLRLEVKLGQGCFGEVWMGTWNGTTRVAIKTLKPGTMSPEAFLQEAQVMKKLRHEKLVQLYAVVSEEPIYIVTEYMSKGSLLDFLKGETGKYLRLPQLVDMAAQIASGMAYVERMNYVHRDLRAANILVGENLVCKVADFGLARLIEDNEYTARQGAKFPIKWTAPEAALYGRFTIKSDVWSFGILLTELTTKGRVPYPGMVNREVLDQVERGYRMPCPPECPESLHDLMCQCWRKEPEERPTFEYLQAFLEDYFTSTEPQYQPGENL

| SMILES | IC50 [nM] |
| --- | --- |
| CCN(CC)CCOc1ccc(Nc2ncc3c(n2)N(C)C(=O)N(c2cc(NC(=O)c4ccc(C#N)cc4)ccc2Cl)C3)cc1 [Example 2-8, N-(4-Chloro-3-{7-[4-(2-diethylamino-ethoxy)-phenylamino]-1-methyl-2-oxo-1,4-dihydro-2H-pyrimido[4,5-d]pyrimidin-3-yl}-phenyl)-4-cyano-benzamide] | 1 |
| CCN(CC)CCOc1ccc(Nc2ncc3c(n2)N(C)C(=O)N(c2cc(NC(=O)c4ccc(OC)cc4)ccc2Cl)C3)cc1 [Example 2-7, N-(4-Chloro-3-{7-[4-(2-diethylamino-ethoxy)-phenylamino]-1-methyl-2-oxo-1,4-dihydro-2H-pyrimido[4,5-d]pyrimidin-3-yl}-phenyl)-4-methoxy-benzamide] | 1 to 15 |
| CCN(CC)CCOc1ccc(Nc2ncc3c(n2)N(C)C(=O)N(c2cc(NC(=O)C4CCCCCC4)ccc2Cl)C3)cc1 [Example 2-2, Cycloheptanecarboxylic acid (4-chloro-3-{7-[4-(2-diethylamino-ethoxy)-phenylamino]-1-methyl-2-oxo-1,4-dihydro-2H-pyrimido[4,5-d]pyrimidin-3-yl}-phenyl)-amide; compound with acetic acid] | 15 to 50 |
| CCN(CC)CCOc1ccc(Nc2ncc3c(n2)N(C)C(=O)N(c2cc(NC(=O)CCc4ccc(O)cc4)ccc2Cl)C3)cc1 [Example 2-12, N-(4-Chloro-3-{7-[4-(2-diethylamino-ethoxy)-phenylamino]-1-methyl-2-oxo-1,4-dihydro-2H-pyrimido[4,5-d]pyrimidin-3-yl}-phenyl)-3-(4-hydroxy-phenyl)-propionamide; compound with acetic acid] | 1 to 15 |
| CCN(CC)CCOc1ccc(Nc2ncc3c(n2)N(C)C(=O)N(c2cc(NC(=O)C=Cc4ccccc4)ccc2Cl)C3)cc1 [Example 2-16, N-(4-Chloro-3-{7-[4-(2-diethylamino-ethoxy)-phenylamino]-1-methyl-2-oxo-1,4-dihydro-2H-pyrimido[4,5-d]pyrimidin-3-yl}-phenyl)-3-phenyl-acrylamide] | 1 to 15 |
| CCN(CC)CCOc1ccc(Nc2ncc3c(n2)N(C)C(=O)N(c2cc(NC(=O)c4ccc(-c5ccccc5)cc4)ccc2Cl)C3)cc1 [Example 1, Biphenyl-4-carboxylic acid (4-chloro-3-{7-[4-(2-diethylamino-ethoxy)-phenylamino]-1-methyl-2-oxo-1,4-dihydro-2H-pyrimido[4,5-d]pyrimidin-3-yl}-phenyl)-amide] | 1 to 15 |

Further lines, results first:

| IC50 [nM] | SMILES |
| --- | --- |
| 15 to 50 | CCN(CC)CCOc1ccc(Nc2ncc3c(n2)N(C)C(=O)N(c2cc(NC(=O)CCCc4ccccc4)ccc2Cl)C3)cc1 [Example 2-15, N-(4-Chloro-3-{7-[4-(2-diethylamino-ethoxy)-phenylamino]-1-methyl-2-oxo-1,4-dihydro-2H-pyrimido[4,5-d]pyrimidin-3-yl}-phenyl)-4-phenyl-butyramide] |
| 2.4 | CCN(CC)CCOc1ccc(Nc2ncc3c(n2)N(C)C(=O)N(c2cc(NC(=O)c4ccccc4)ccc2Cl)C3)cc1 [Example 2-6, N-(4-Chloro-3-{7-[4-(2-diethylamino-ethoxy)-phenylamino]-1-methyl-2-oxo-1,4-dihydro-2H-pyrimido[4,5-d]pyrimidin-3-yl}-phenyl)-benzamide] |
| 1 to 15 | CCN(CC)CCOc1ccc(Nc2ncc3c(n2)N(C)C(=O)N(c2cc(NC(=O)CCc4cccnc4)ccc2Cl)C3)cc1 [Example 2-23, N-(4-Chloro-3-{7-[4-(2-diethylamino-ethoxy)-phenylamino]-1-methyl-2-oxo-1,4-dihydro-2H-pyrimido[4,5-d]pyrimidin-3-yl}-phenyl)-3-pyridin-3-yl-propionamide; compound with acetic acid] |
| 15 to 50 | CCN(CC)CCOc1ccc(Nc2ncc3c(n2)N(C)C(=O)N(c2cc(NC(=O)Cc4cccnc4)ccc2Cl)C3)cc1 [Example 2-21, N-(4-Chloro-3-{7-[4-(2-diethylamino-ethoxy)-phenylamino]-1-methyl-2-oxo-1,4-dihydro-2H-pyrimido[4,5-d]pyrimidin-3-yl}-phenyl)-2-pyridin-3-yl-acetamide] |
